# Source: the supplement of paper PMC11061612
# Columns and labels:
# Test in all cases: Bliss excess, mean over the matrix (fraction); higher = more synergy
# [1] = system: LoVo (Colorectal Carcinoma)
# Summary of the method: (§1)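 After 24 hours at 37°C and 5% CO2 in 1536-well plates, cells in DMEM/F12 or RPMI plus 10% FBS received two-drug dose matrices for 72 hours. Viability came from CellTiter-Glo 2.0 luminescence and was scaled as inhibition, anchored at 0 by vehicle wells and at 1 by blank wells. Combination Emax is taken as the second-highest inhibition in the matrix, and Bliss excess as the observed combination effect less EA + EB − EA·EB, with EA and EB the single-agent effects.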
# NCI-H2461 (Mesothelioma) = system: NCI-H2461 (Mesothelioma)
# Summary of the method: as §1
# [2] = system: PCI-30 (Head and Neck Carcinoma)
# Summary of the method: as §1
# [3] = system: NCI-H69 (Small Cell Lung Carcinoma)
# Summary of the method: as §1
# HMV-II (Melanoma) = system: HMV-II (Melanoma)
# Summary of the method: as §1
# NCI-H2795 (Mesothelioma) = system: NCI-H2795 (Mesothelioma)
# Summary of the method: as §1
# [4] = system: K5 (Thyroid Gland Carcinoma)
# Summary of the method: as §1
# [5] = system: SW1271 (Small Cell Lung Carcinoma)
# Summary of the method: as §1
# [6] = system: RPMI-6666 (Non-Cancerous)
# Summary of the method: as §1
# NB14 (Neuroblastoma) = system: NB14 (Neuroblastoma)
# Summary of the method: as §1
# [7] = system: OVCAR-8 (Ovarian Carcinoma)
# Summary of the method: as §1
# [8] = system: EN (Endometrial Carcinoma)
# Summary of the method: as §1
# NCI-H28 (Mesothelioma) = system: NCI-H28 (Mesothelioma)
# Summary of the method: as §1
# Mewo (Melanoma) = system: Mewo (Melanoma)
# Summary of the method: as §1
# [9] = system: SK-OV-3 (Ovarian Carcinoma)
# Summary of the method: as §1
# SH-4 (Melanoma) = system: SH-4 (Melanoma)
# Summary of the method: as §1
# [10] = system: HARA (Squamous Cell Lung Carcinoma)
# Summary of the method: as §1
# [11] = system: HO-1-u-1 (Oral Cavity Carcinoma)
# Summary of the method: as §1
# [12] = system: 639-V (Bladder Carcinoma)
# Summary of the method: as §1
smiles,measurement,setting,value
"COc1nnc2ccc(N3CCC(c4ccc(OCCN5CCN(C)C(=O)[C@H]5C)cc4)CC3)nn12 [AZD5153] + CCN(CCO)CCCOc1ccc2c(Nc3cc(CC(=O)Nc4cccc(F)c4)[nH]n3)ncnc2c1 [AZD2811] (first compound max 1 µM, 7x7, partner max 1 µM)",Bliss excess,[1],-0.0623
same,Bliss excess,NCI-H2461 (Mesothelioma),-0.0421
same,Bliss excess,[2],-0.0568
same,Bliss excess,[3],0.0048
same,Bliss excess,HMV-II (Melanoma),-0.0481
same,Bliss excess,NCI-H2795 (Mesothelioma),-0.0807
same,Bliss excess,[4],-0.0485
same,Bliss excess,[5],-0.0234
same,Bliss excess,[6],-0.0656
same,Bliss excess,NB14 (Neuroblastoma),-0.0546
same,Bliss excess,[7],-0.0131
same,Bliss excess,[8],-0.0918
same,Bliss excess,NCI-H28 (Mesothelioma),-0.0415
same,Bliss excess,Mewo (Melanoma),-0.0578
same,Bliss excess,[9],-0.0703
same,Bliss excess,SH-4 (Melanoma),-0.0194
same,Bliss excess,[10],-0.0548
same,Bliss excess,[11],-0.121
same,Bliss excess,[12],-0.063
"C=CCn1c(=O)c2cnc(Nc3ccc(N4CCN(C)CC4)cc3)nc2n1-c1cccc(C(C)(C)O)n1 [AZD1775] + CCc1c2c(nc3ccc(O)cc13)-c1cc3c(c(=O)n1C2)COC(=O)[C@]3(O)CC [SN-38] (first compound max 1 µM, partner max 0.3 µM)",Bliss excess,[1],-0.0388
same,Bliss excess,NCI-H2461 (Mesothelioma),-0.1
same,Bliss excess,[2],0.0013
same,Bliss excess,[3],-0.0629
same,Bliss excess,HMV-II (Melanoma),-0.122
same,Bliss excess,NCI-H2795 (Mesothelioma),-0.0951
same,Bliss excess,[4],-0.0219
same,Bliss excess,[5],-0.0391
same,Bliss excess,[6],-0.048
same,Bliss excess,NB14 (Neuroblastoma),-0.007
same,Bliss excess,[8],0.0209
same,Bliss excess,NCI-H28 (Mesothelioma),-0.0503
same,Bliss excess,Mewo (Melanoma),-0.0402
same,Bliss excess,[9],-0.0557
same,Bliss excess,SH-4 (Melanoma),-0.072
same,Bliss excess,[10],-0.015
same,Bliss excess,[11],0.0391
"NC1(C(=O)N[C@@H](CCO)c2ccc(Cl)cc2)CCN(c2ncnc3[nH]ccc23)CC1 [Capivasertib] + CCN(CCO)CCCOc1ccc2c(Nc3cc(CC(=O)Nc4cccc(F)c4)[nH]n3)ncnc2c1 [AZD2811] (first compound max 10 µM, 7x7, partner max 1 µM)",Bliss excess,[1],-0.0387
same,Bliss excess,NCI-H2461 (Mesothelioma),-0.0811
same,Bliss excess,[2],-0.0595
same,Bliss excess,[3],0.0132
same,Bliss excess,HMV-II (Melanoma),-0.0457
same,Bliss excess,NCI-H2795 (Mesothelioma),0.0267
same,Bliss excess,[4],-0.0379
same,Bliss excess,[5],-0.0113
same,Bliss excess,[6],-0.133
same,Bliss excess,NB14 (Neuroblastoma),-0.03
same,Bliss excess,[7],0.001
same,Bliss excess,[8],-0.0464
same,Bliss excess,NCI-H28 (Mesothelioma),-0.0484
same,Bliss excess,Mewo (Melanoma),0.0228
same,Bliss excess,[9],-0.0301
same,Bliss excess,SH-4 (Melanoma),-0.0507
same,Bliss excess,[10],0.0137
same,Bliss excess,[11],-0.0122
same,Bliss excess,[12],0.0193
"COc1nnc2ccc(N3CCC(c4ccc(OCCN5CCN(C)C(=O)[C@H]5C)cc4)CC3)nn12 [AZD5153] + Cc1c2c(nn1C)CSCc1cc(n(C)n1)CSc1cc(c3ccccc3c1)OCCCc1c(C(=O)O)n(C)c3c-2c(Cl)ccc13 [AZD5991] (first compound max 1 µM, 7x7, partner max 1 µM)",Bliss excess,[1],-0.0383
same,Bliss excess,NCI-H2461 (Mesothelioma),-0.0189
same,Bliss excess,[2],-0.0218
same,Bliss excess,[3],-0.0507
same,Bliss excess,HMV-II (Melanoma),-0.0092
same,Bliss excess,NCI-H2795 (Mesothelioma),0.0103
same,Bliss excess,[4],-0.0635
same,Bliss excess,[5],-0.0242
same,Bliss excess,[6],-0.0409
same,Bliss excess,NB14 (Neuroblastoma),0.034
same,Bliss excess,[7],0.0205
same,Bliss excess,[8],0.0144
same,Bliss excess,NCI-H28 (Mesothelioma),-0.0976
same,Bliss excess,Mewo (Melanoma),-0.0453
same,Bliss excess,[9],-0.048
same,Bliss excess,SH-4 (Melanoma),-0.0628
same,Bliss excess,[10],-0.0142
same,Bliss excess,[11],-0.0055
same,Bliss excess,[12],-0.0552
"Cc1nc(-c2cn3c(n2)-c2ccc(-c4cnn(C(C)(C)C(N)=O)c4)cc2OCC3)n(C(C)C)n1 [Taselisib] + O=C(Nc1ccc2[nH]nc(-c3ccncc3)c2c1)[C@@H]1CCN(CC(=O)N2CCN(c3ccc(-c4ncccn4)cc3)CC2)C1 [SCH772984] (first compound max 10 µM, 7x7, partner max 5 µM)",Bliss excess,[1],-0.0284
same,Bliss excess,NCI-H2461 (Mesothelioma),-0.012
same,Bliss excess,[2],0.023
same,Bliss excess,[3],0.0251
same,Bliss excess,HMV-II (Melanoma),0.0285
same,Bliss excess,NCI-H2795 (Mesothelioma),0.0704
same,Bliss excess,[4],0.0419
same,Bliss excess,[5],-0.0096
same,Bliss excess,[6],-0.001
same,Bliss excess,NB14 (Neuroblastoma),0.192
same,Bliss excess,[8],-0.034
same,Bliss excess,NCI-H28 (Mesothelioma),0.0417
same,Bliss excess,Mewo (Melanoma),0.017
same,Bliss excess,[9],0.0609
same,Bliss excess,SH-4 (Melanoma),0.0374
same,Bliss excess,[10],0.0577
same,Bliss excess,[11],0.0064
"CS(=O)(=O)CCNCc1ccc(-c2ccc3ncnc(Nc4ccc(OCc5cccc(F)c5)c(Cl)c4)c3c2)o1 [Lapatinib] + Cn1cnc2c(F)c(Nc3ccc(Br)cc3Cl)c(C(=O)NOCCO)cc21 [Selumetinib] (first compound max 10 µM, 7x7, partner max 10 µM)",Bliss excess,[1],0.0361
same,Bliss excess,NCI-H2461 (Mesothelioma),-0.0492
same,Bliss excess,[2],0.0027
same,Bliss excess,[3],-0.0384
same,Bliss excess,HMV-II (Melanoma),-0.141
same,Bliss excess,NCI-H2795 (Mesothelioma),-0.0488
same,Bliss excess,[4],-0.022
same,Bliss excess,[5],-0.0167
same,Bliss excess,[6],0.0204
same,Bliss excess,NB14 (Neuroblastoma),0.0397
same,Bliss excess,[8],-0.0829
same,Bliss excess,NCI-H28 (Mesothelioma),-0.0026
same,Bliss excess,Mewo (Melanoma),-0.0029
same,Bliss excess,[9],-0.0287
same,Bliss excess,SH-4 (Melanoma),-0.0519
same,Bliss excess,[10],-0.0257
same,Bliss excess,[11],-0.0047
"CS(=O)(=O)CCNCc1ccc(-c2ccc3ncnc(Nc4ccc(OCc5cccc(F)c5)c(Cl)c4)c3c2)o1 [Lapatinib] + NC1(c2ccc(-c3nc4ccn5c(=O)[nH]nc5c4cc3-c3ccccc3)cc2)CCC1 [MK-2206] (first compound max 10 µM, 7x7, partner max 10 µM)",Bliss excess,[1],0.0841
same,Bliss excess,NCI-H2461 (Mesothelioma),-0.0423
same,Bliss excess,[2],-0.0005
same,Bliss excess,[3],0.0389
same,Bliss excess,HMV-II (Melanoma),-0.0337
same,Bliss excess,NCI-H2795 (Mesothelioma),0.0513
same,Bliss excess,[4],0.0293
same,Bliss excess,[5],0.0083
same,Bliss excess,[6],0.0164
same,Bliss excess,NB14 (Neuroblastoma),0.0136
same,Bliss excess,[8],-0.0024
same,Bliss excess,NCI-H28 (Mesothelioma),-0.0103
same,Bliss excess,Mewo (Melanoma),0.0072
same,Bliss excess,[9],0.0257
same,Bliss excess,SH-4 (Melanoma),0.0025
same,Bliss excess,[10],0.086
same,Bliss excess,[11],0.0235
"COc1cc2ncnc(Nc3ccc(F)c(Cl)c3)c2cc1OCCCN1CCOCC1 [Gefitinib] + CC(C)n1c(=O)n(C)c2cnc3cc(F)c(-c4ccc(OCCCN5CCCCC5)nc4)cc3c21 [AZD1390] (first compound max 10 µM, 7x7, partner max 0.3 µM)",Bliss excess,[1],-0.0418
same,Bliss excess,NCI-H2461 (Mesothelioma),-0.0733
same,Bliss excess,[2],-0.0871
same,Bliss excess,[3],-0.0122
same,Bliss excess,HMV-II (Melanoma),-0.0442
same,Bliss excess,NCI-H2795 (Mesothelioma),-0.0631
same,Bliss excess,[4],-0.0479
same,Bliss excess,[5],-0.0388
same,Bliss excess,[6],-0.0657
same,Bliss excess,NB14 (Neuroblastoma),-0.0145
same,Bliss excess,[7],-0.0633
same,Bliss excess,[8],-0.0318
same,Bliss excess,Mewo (Melanoma),-0.0712
same,Bliss excess,[9],-0.0442
same,Bliss excess,SH-4 (Melanoma),-0.0669
same,Bliss excess,[10],-0.0343
same,Bliss excess,[11],-0.0212
same,Bliss excess,[12],-0.0765
